Test systems include SF-539 CNS; LOX IMVI melanoma; A498 renal; UACC-62 melanoma; HCT-116 colon; SR leukemia; UO-31 renal; MOLT-4 leukemia; KM12 colon; EKVX NSCLC.
Assay in all cases: NCI tumour cell line growth inhibition, 48 h

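Interpolation was linear, between the two tested concentrations surrounding the appropriate level; five concentrations were tested over 48 hours in 96-well plates. At the GI50, growth is halved. At the TGI there is no net growth.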 A value given as a limit tells only on which side of the number the result lay.

With `COc1ccc(N=Cc2c(O)ccc3c2oc2cc(Cl)c(O)c(Cl)c23)cc1`, the GI50 in the assay on SF-539 CNS was 7.03 µM; with LOX IMVI melanoma, 15.1 µM; in the assay on A498 renal it was 14.5 µM; in the assay with UACC-62 melanoma it was 10.3 µM; in the assay with HCT-116 colon, 21 µM; in the assay with SR leukemia it was 10.9 µM. In addition, the GI50 in the assay on UO-31 renal was 5 µM; in the assay on MOLT-4 leukemia it was 4.84 µM; with KM12 colon, 7.91 µM; in the assay on EKVX NSCLC, 10.7 µM. Besides, the TGI with SF-539 CNS turned out to be 30.4 µM; with LOX IMVI melanoma, 53.4 µM; with A498 renal it was 28.5 µM; in the assay with UACC-62 melanoma it was 33.7 µM; with HCT-116 colon it was 56.9 µM; with SR leukemia it was 51.7 µM. For the same compound, the TGI stood at 26.6 µM in the assay with UO-31 renal, 30 µM in the assay on MOLT-4 leukemia, 21.3 µM with KM12 colon and 38 µM with EKVX NSCLC.
For the compound `N.N.NCCCCCN.O=C([O-])CCl.O=C([O-])CCl.O=C([O-])CCl.O=C([O-])CCl.[Pt+4].[Pt+4]`, the GI50 in the assay on SF-539 CNS is 3.08 µM; with LOX IMVI melanoma, 5.93 µM; in the assay on A498 renal, 11 µM; in the assay on UACC-62 melanoma, 0.406 µM; in the assay on HCT-116 colon, 10.8 µM; with SR leukemia, 1.73 µM. Besides, the GI50 with UO-31 renal is 4.23 µM; in the assay with KM12 colon, 20.9 µM; in the assay on EKVX NSCLC it was 17 µM. The TGI was 19.8 µM with SF-539 CNS; > 100 µM in the assay with LOX IMVI melanoma; 31.2 µM in the assay on A498 renal; 53.9 µM in the assay with UACC-62 melanoma; > 100 µM with HCT-116 colon; 16.8 µM in the assay on SR leukemia. The results for the TGI in the assay with UO-31 renal, in the assay with KM12 colon and in the assay with EKVX NSCLC were 17.9 µM, > 100 µM and 58.2 µM, respectively.
Take `C=CCC(N[C@@H](CO)c1ccccc1)c1cn(Cc2ccccc2Cl)c(=O)n(Cc2ccccc2Cl)c1=O` (some centres not stated): the GI50 is > 100 µM in the assay with SF-539 CNS; > 100 µM with LOX IMVI melanoma; 13.5 µM in the assay with A498 renal; 82.2 µM with UACC-62 melanoma; 87.3 µM in the assay on HCT-116 colon; > 100 µM with SR leukemia. Moreover, the GI50 in the assay with UO-31 renal, in the assay with KM12 colon and with EKVX NSCLC was > 100 µM in each case. Besides, the TGI in the assay on SF-539 CNS, in the assay on LOX IMVI melanoma, in the assay with A498 renal, in the assay on UACC-62 melanoma, with HCT-116 colon and in the assay with SR leukemia was > 100 µM throughout. The TGI in the assay with UO-31 renal, with KM12 colon and in the assay with EKVX NSCLC was > 100 µM throughout.
`CCOC(=O)[C@@H](C)C[C@H](Cc1ccccc1)NC(=O)c1nc([C@@H](C[C@H](C(C)C)N(C)C(=O)[C@@H](NC(=O)[C@H]2CCCCN2C)C(C)C)OC(C)=O)sc1CCOCc1ccccc1`: the GI50 with SF-539 CNS was 0.0571 µM; with LOX IMVI melanoma, 0.0609 µM; with A498 renal, 0.0264 µM; with UACC-62 melanoma, 0.0372 µM; in the assay with HCT-116 colon it was 0.0473 µM; with SR leukemia, 0.0313 µM. The GI50 in the assay on UO-31 renal is 0.586 µM; with MOLT-4 leukemia, 0.132 µM; with KM12 colon it was 0.0442 µM; with EKVX NSCLC, 0.314 µM. Also, the TGI in the assay with SF-539 CNS was 0.39 µM; with LOX IMVI melanoma it was 1.54 µM; with A498 renal, 0.417 µM; in the assay with UACC-62 melanoma, 1.69 µM; in the assay on HCT-116 colon, 1.23 µM; with SR leukemia it was 1.87 µM. Moreover, the TGI was 2.24 µM in the assay with UO-31 renal, 5.61 µM with MOLT-4 leukemia, 1.48 µM in the assay on KM12 colon and > 11.1 µM in the assay with EKVX NSCLC.
Consider `O=C1CC[C@H](N2C(=O)c3cccc4c(Cc5ccc(CN6CCOCC6)cc5)ccc2c34)C(=O)N1`, for which the GI50 with SF-539 CNS was > 100 µM; in the assay on LOX IMVI melanoma, 26.1 µM; with A498 renal, > 100 µM; with HCT-116 colon it was 33.6 µM; in the assay with SR leukemia, 4.03 µM; in the assay on UO-31 renal, 48.7 µM. Further, the GI50 was 27.6 µM with MOLT-4 leukemia, 79 µM in the assay on KM12 colon and 17.9 µM with EKVX NSCLC. In addition, the TGI in the assay with SF-539 CNS, in the assay with LOX IMVI melanoma, in the assay on A498 renal, in the assay on HCT-116 colon, in the assay with SR leukemia and in the assay with UO-31 renal was > 100 µM throughout. The TGI in the assay with MOLT-4 leukemia, in the assay with KM12 colon and in the assay on EKVX NSCLC was > 100 µM in each case.
`COc1cccc(CCC2CCCN(c3cc(C)nc(N)n3)C2)c1` (configuration not stated): the GI50 with SF-539 CNS was 0.277 µM; with LOX IMVI melanoma, 0.609 µM; with A498 renal, 0.288 µM; in the assay on UACC-62 melanoma it was 0.426 µM; in the assay on HCT-116 colon, 0.484 µM; in the assay with SR leukemia it was 0.236 µM. The GI50 was 0.576 µM in the assay with UO-31 renal, 0.496 µM in the assay on MOLT-4 leukemia, 0.315 µM in the assay on KM12 colon and 0.558 µM in the assay on EKVX NSCLC. Further, the TGI amounted to 1.15 µM in the assay with SF-539 CNS; 7.65 µM in the assay with LOX IMVI melanoma; 2.51 µM with A498 renal; 5.49 µM with UACC-62 melanoma; 11 µM in the assay with HCT-116 colon; 4.09 µM in the assay with SR leukemia. In addition, the TGI with UO-31 renal was 11.9 µM; in the assay on MOLT-4 leukemia it was 13.2 µM; in the assay with KM12 colon, 12.4 µM; with EKVX NSCLC it was 27.7 µM.
`CCOC(=O)C1SC(=Nc2cccc(Cl)c2C)N=C1C` (configuration not stated): the TGI in the assay on SF-539 CNS is 74 µM; with LOX IMVI melanoma it was 32 µM; in the assay with A498 renal it was > 100 µM; in the assay on HCT-116 colon, 58.1 µM; in the assay with SR leukemia it was 61.2 µM; in the assay with UO-31 renal, 78.9 µM. Besides, the figures for the TGI in the assay on MOLT-4 leukemia, in the assay with KM12 colon and in the assay on EKVX NSCLC were 78.8 µM, 77.7 µM and > 10 µM, respectively.
`COc1ccc(C(CCC(C)=O)C(=O)O)cc1OC` (configuration not stated): the TGI in the assay on SF-539 CNS, in the assay with LOX IMVI melanoma, in the assay on A498 renal, in the assay with UACC-62 melanoma, in the assay on HCT-116 colon and in the assay with SR leukemia was > 100 µM each time. Further, the TGI in the assay with KM12 colon and in the assay with EKVX NSCLC was > 100 µM each time.
Consider `COC1=CC(c2ccc[nH]2)=N/C1=C\c1[nH]c(C)c(CC(=O)OCc2ccccc2)c1CCC(=O)OCc1ccccc1`, for which the GI50 is 0.458 µM with SF-539 CNS; 0.284 µM in the assay on LOX IMVI melanoma; 0.288 µM with A498 renal; 0.233 µM in the assay with HCT-116 colon; 0.236 µM with SR leukemia; 0.21 µM with UO-31 renal. Further, the GI50 is 0.309 µM in the assay with MOLT-4 leukemia, 0.367 µM in the assay on KM12 colon and 0.349 µM in the assay with EKVX NSCLC. Also, the TGI with SF-539 CNS was 1.74 µM; in the assay with LOX IMVI melanoma, 1.03 µM; in the assay with A498 renal it was 2.42 µM; in the assay on HCT-116 colon, 1.04 µM; with SR leukemia it was 0.74 µM; in the assay on UO-31 renal it was 0.577 µM. Also, the TGI was found to be 2.01 µM in the assay with MOLT-4 leukemia, 2.26 µM in the assay on KM12 colon and 4.13 µM in the assay on EKVX NSCLC.
Turning to `O=C(/C=C/c1ccco1)c1cc(F)c(Cl)cc1Cl`, the GI50 is 20 µM in the assay on SF-539 CNS; 22.4 µM in the assay with LOX IMVI melanoma; 18.7 µM in the assay on A498 renal; 16.5 µM in the assay on UACC-62 melanoma; 14.9 µM in the assay with HCT-116 colon; 23 µM with SR leukemia. Further, the GI50 in the assay with UO-31 renal was 17.1 µM; with KM12 colon, 19.7 µM; in the assay on EKVX NSCLC, 17.1 µM. The TGI with SF-539 CNS was 38.1 µM; in the assay with LOX IMVI melanoma it was 58.2 µM; in the assay with A498 renal, 39.2 µM; with UACC-62 melanoma, 34.6 µM; in the assay on HCT-116 colon, 31.6 µM; in the assay with SR leukemia it was > 100 µM. In addition, the results for the TGI in the assay with UO-31 renal, in the assay with KM12 colon and in the assay on EKVX NSCLC were 34 µM, 56.4 µM and 37.3 µM, respectively.
As to `CN(C)c1ccc(/C=C/c2ccnc3c(O)cccc23)cc1`, the GI50 was 0.344 µM in the assay on SF-539 CNS; 0.313 µM in the assay on LOX IMVI melanoma; 3.39 µM in the assay with A498 renal; 0.294 µM in the assay with UACC-62 melanoma; 0.401 µM in the assay on HCT-116 colon; 0.321 µM in the assay with SR leukemia. In addition, the GI50 in the assay on UO-31 renal is 0.247 µM; in the assay on MOLT-4 leukemia, 0.357 µM; in the assay on KM12 colon, 0.399 µM. Further, the TGI was 3.33 µM in the assay on SF-539 CNS; > 100 µM in the assay with LOX IMVI melanoma; > 100 µM in the assay on A498 renal; 1.07 µM in the assay on UACC-62 melanoma; > 100 µM with HCT-116 colon; > 100 µM in the assay with SR leukemia. For the same compound, the TGI was > 22.7 µM with UO-31 renal, > 100 µM in the assay with MOLT-4 leukemia and > 100 µM with KM12 colon.
Take `Nc1c(C(=O)c2ccc(-c3cccnc3)cc2)cnn1-c1ccc(F)cc1`: the GI50 is > 16.7 µM in the assay on SF-539 CNS; > 25 µM in the assay on LOX IMVI melanoma; > 18.8 µM in the assay with A498 renal; > 21.1 µM in the assay on UACC-62 melanoma; > 14 µM in the assay with HCT-116 colon; > 25 µM in the assay with SR leukemia. In addition, the figures for the GI50 in the assay with UO-31 renal, in the assay on MOLT-4 leukemia and in the assay on KM12 colon were > 12.8 µM, > 25 µM and > 20.8 µM, respectively. In addition, the TGI with SF-539 CNS, in the assay with LOX IMVI melanoma, with A498 renal, in the assay with UACC-62 melanoma, with HCT-116 colon and in the assay on SR leukemia was > 25 µM in each case. The TGI in the assay on UO-31 renal was > 22 µM; with MOLT-4 leukemia, > 25 µM; in the assay with KM12 colon, > 25 µM.
With `O=C1/C(=N\O)c2ccccc2S1(=O)=O`, the TGI in the assay with SF-539 CNS, in the assay with LOX IMVI melanoma, in the assay on A498 renal, in the assay with UACC-62 melanoma, with HCT-116 colon and in the assay with SR leukemia was > 100 µM each time. In addition, the TGI with UO-31 renal, in the assay on MOLT-4 leukemia and in the assay on KM12 colon was > 100 µM in each case.

Values taken from PubChem BioAssay (NCI).
